From PubChem BioAssay (NCI)
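Test compounds were applied to cells in 96-well plates for 48 hours at 5 doses. TGI marks complete inhibition of growth.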

Experiments:
Assay in all cases: NCI tumour cell line growth inhibition, 48 h
[1] = test system: MOLT-4 leukemia
[2] = test system: DU-145 prostate
[3] = test system: UO-31 renal
[4] = test system: HL-60(TB) leukemia
[5] = test system: OVCAR-4 ovarian
[6] = test system: IGROV1 ovarian
[7] = test system: T-47D breast
[8] = test system: MALME-3M melanoma
[9] = test system: SF-539 CNS
[10] = test system: KM12 colon
[11] = test system: RPMI-8226 leukemia
[12] = test system: SW-620 colon
[13] = test system: BT-549 breast
[14] = test system: M14 melanoma
[15] = test system: SNB-19 CNS
[16] = test system: U251 CNS
[17] = test system: RXF 393 renal
[18] = test system: SF-295 CNS
[19] = test system: HS 578T breast
[20] = test system: NCI-H460 lung
[21] = test system: HOP-92 NSCLC
[22] = test system: EKVX NSCLC
[23] = test system: NCI-H226 lung
[24] = test system: SK-OV-3 ovarian
[25] = test system: HOP-62 NSCLC
[26] = test system: HCT-15 colon
[27] = test system: COLO 205 colon
[28] = test system: NCI-H522 lung
[29] = test system: SF-268 CNS
[30] = test system: LOX IMVI melanoma
[31] = test system: OVCAR-3 ovarian
[32] = test system: SN12C renal
[33] = test system: SK-MEL-5 melanoma
[34] = test system: NCI/ADR-RES ovarian
[35] = test system: SK-MEL-2 melanoma
[36] = test system: MDA-MB-231 breast
[37] = test system: CAKI-1 renal
[38] = test system: OVCAR-8 ovarian
[39] = test system: MCF7 breast
[40] = test system: TK-10 renal
[41] = test system: MDA-MB-435
[42] = test system: HCC-2998 colon
[43] = test system: A549 NSCLC
[44] = test system: NCI-H23 lung
[45] = test system: MDA-N
[46] = test system: UACC-62 melanoma
[47] = test system: ACHN renal
[48] = test system: PC-3 prostate
[49] = test system: CCRF-CEM leukemia
[50] = test system: HCT-116 colon
[51] = test system: A498 renal
[52] = test system: OVCAR-5 ovarian
[53] = test system: SK-MEL-28 melanoma
[54] = test system: HT29 colon
[55] = test system: K-562 leukemia
[56] = test system: UACC-257 melanoma
[57] = test system: 786-0 renal
[58] = test system: SR leukemia
[59] = test system: SNB-75 CNS

Measured: TGI

C[C@H](CCC(=O)NCCS(=O)(=O)O)[C@H]1CC[C@H]2[C@@H]3[C@H](O)C[C@@H]4C[C@H](O)CC[C@]4(C)[C@H]3CC[C@]12C
not listed: [59]
> 100 µM: all other assays above

CC(NP(=O)(c1ccccc1)c1ccccc1)c1ccccc1 (stereo unspecified)
not listed: [35]
> 100 µM: all other assays above
